Laboratory results from patent US8884011B2, “Nucleotide analogues as precursor molecules for antivirals” (Centre National de la Recherche Scientifique-CNRS, priority 2006, dated 2014).

Experiments:
[1] = tested on: influenza A (H3N2); test: Virus panel: influenza A (H3N2) in MDCK cells; format: cell-based; conditions: read-out: in vitro antiviral activity (EC50), none up to
Text: (§1) influenza A (H1N1), influenza A (H3N2), influenza B, in MDCK cells;

[2] = tested on: Herpes simplex virus-2 (G); test: Virus panel, CPE assay: Herpes simplex virus-2 (G) in HEL cells; format: cell-based; conditions: Human alphaherpesvirus 2
[3] = tested on: HIV-1 (IIIB); test: Anti-HIV test in CEM cell cultures, syncytium formation, HIV-1 (IIIB); format: cell-based; conditions: Human immunodeficiency virus 1, IIIB, CCRF-CEM, read-out: EC50 (μM) HIV-1
Experimental: Briefly, CEM cells (4.5×10^5 cells per ml) were suspended in fresh culture medium and infected with HIV-1 at 100 CCID50 per ml of cell suspension. Then, 100 μl of the infected cell suspension were transferred to microplate wells, mixed with 100 μl of the appropriate dilutions of the test compounds, and further incubated at 37° C. After 4 to 5 days, giant cell formation was recorded microscopically in the CEM cell cultures.

[4] = tested on: respiratory syncytial virus; test: Virus panel, CPE assay: respiratory syncytial virus in Hela cells; format: cell-based; conditions: human respiratory syncytial virus, read-out: in vitro antiviral activity (EC50), none up to
[5] = tested on: Sindbis virus; test: Virus panel, CPE assay: Sindbis virus in Vero cells; format: cell-based; conditions: read-out: in vitro antiviral activity (EC50), none up to
[6] = tested on: HBV; test: Anti-HBV test in infected Huh7 cells; format: cell-based; conditions: Hepatitis B virus, Huh-7, read-out: EC50 (μM) HBV
[7] = Cytotoxicity by MTT test in cultures of uninfected CMSP; conditions: human
[8] = tested on: influenza B; test: Virus panel: influenza B in MDCK cells; format: cell-based; conditions: read-out: in vitro antiviral activity (EC50), none up to
Text: as §1

[9] = tested on: HIV-2 (ROD); test: Anti-HIV test in CEM cell cultures, syncytium formation, HIV-2 (ROD); format: cell-based; conditions: Human immunodeficiency virus 2, CCRF-CEM, read-out: EC50 (μM) HIV-2
[10] = tested on: Coxsackie B4; test: Virus panel, CPE assay: Coxsackie B4 virus in Hela and Vero cells; format: cell-based; conditions: Enterovirus B, read-out: in vitro antiviral activity (EC50), none up to
[11] = tested on: influenza A (H1N1); test: Virus panel: influenza A (H1N1) in MDCK cells; format: cell-based; conditions: read-out: in vitro antiviral activity (EC50), none up to
Text: as §1

[12] = Stability in total cell extracts (CEM-SS), HPLC; format: in vitro ADME; conditions: 37° C., 0.1 mM
Experimental: (§2) Media and preparation of cell extracts. Culture medium was composed by RPMI 1640 containing 10% (v/v) heat-inactivated fetal calf serum and stored at −80° C. CEM-SS cell extracts were prepared according to a published procedure (Puech, F. et al. Antiv. Res. 1993, 22, 155-174). Exponentially growing CEM-SS cells were recovered by centrifugation (500 g, 4° C., 4 min), washed twice with PBS and resuspended in 10 mM Tris-HCl, 140 mM KCl (pH 7.4), at the concentration of 30×10^6 cells/mL. Cells were lyzed by ultrasonic treatment and cellular debris were removed by centrifugation (10000 g, 4° C., 20 min). The supernatant containing soluble proteins (3 mg/mL) was stored at −80° C.
Kinetic data and decomposition pathways for compounds 6 and 11 were studied at 37° C. […]
All the compounds were analyzed under the same conditions. […] The product of degradation from parent compound was determined by comparison with corresponding references.

[13] = tested on: Punta Toro virus; test: Virus panel, CPE assay: Punta Toro virus in Vero cells; format: cell-based; conditions: read-out: in vitro antiviral activity (EC50), none up to
[14] = Cytotoxicity in CEM cell cultures (cell density); format: cell-based; conditions: human, 50% reduction in cell density, read-out: TC50 (the source's name)
[15] = tested on: Feline Herpes virus; test: Virus panel: Feline Herpes virus in CRFK cells; format: cell-based
Text: Feline Corona virus and Feline Herpes virus in CRFK cells.

[16] = tested on: HIV-1-LAI; test: Anti-HIV test in CMSP cultures infected by HIV-1-LAI (RT activity in supernatants); format: cell-based; conditions: Human immunodeficiency virus 1, 168 h, read-out: EC50 (μM) HIV-1 (LAI)
[17] = tested on: Parainfluenza-3-virus; test: Virus panel, CPE assay: Parainfluenza-3-virus in Vero cells; format: cell-based; conditions: read-out: in vitro antiviral activity (EC50), none up to
[18] = Stability in complete medium (RPMI 1640 containing 10% heat-inactivated fetal calf serum), HPLC; format: in vitro ADME
Experimental: as §2
Kinetic data and decomposition pathways for compounds 6 and 11 were studied at 37° C. (a) in complete medium (RPMI 1640 containing 10% heat-inactivated fetal calf serum (b) in total cells extracts (CEM-SS). For each kinetic study, the compound solution was diluted with a freshly thawed aliquot of the considered medium to obtain an initial concentration of 0.1 mM. The mixture was incubated at 37° C. and for the required time, an aliquot (10% solution) was taken and immediately frozen at −80° C. for further HPLC analysis. The crude sample was injected into the precolumn and eluted with buffer A during 5 min. Then, the switching valve for connecting the precolumn to the column was activated, and a linear gradient from buffer A to buffer B, increasing buffer B from 0% at 0 min to 20% at 40 min is applied. The retention times were 6, 26 min; 11, 29.5 min, PMEA, 24.3 min and (R)-PMPA, 27.8 min.
All the compounds were analyzed under the same conditions. The amount of remaining parent compound at each time point was used to determine the half-life of the compound. The product of degradation from parent compound was determined by comparison with corresponding references.

[19] = tested on: HBV; test: Anti-HBV test in infected HepAD38 cells (intracellular viral DNA by Q-PCR); format: cell-based; conditions: Hepatitis B virus, 144 h; infected HepAD38 cells; 50% reduction of viral DNA; day 6 post-induction
Experimental: These are hepatoma cells that have been stably transfected with a cDNA copy of the pregenomic RNA of wild-type virus. Withdrawal of tetracycline from the culture medium results in the initiation of viral replication. This offers the advantage, in contrast to the Hep G2.2.15 cell lines commonly used, that there is no, or very limited background viral DNA synthesis. Cells were cultured at 37° C. in a humidified 5% CO2/air atmosphere in seeding medium, DMEM/Ham's F12 (50/50) supplemented with 10% (v/v) heat-inactivated fetal calf serum, 100 IU/ml penicillin, 50 μg/ml streptomycin, 100 Ξg/ml kanamycin, 400 μg/ml G418, and 0.3 μg/ml tetracycline. […] After 2-3 days the cultures were induced for viral production by washing with prewarmed PBS and were fed with […] assay medium (seeding medium without tetracycline and G418) with or without the antiviral compounds. Medium was changed after 3 days. The antiviral effect was quantified by measuring levels of intracellular viral DNA at day 6 post-induction, by a real time quantitative PCR (Q-PCR) method. Total cellular DNA was extracted from the cells by means of a commercial kit. […] The reaction was analyzed using a SDS 7000. A plasmid containing the full length insert of the HBV genome was used to prepare the standard curve. The amount of viral DNA produced in treated cultures was expressed as a percentage of the mock treated samples. […] The cytostatic effect of the various compounds was assessed employing the parent hepatoma cell line HepG2. The effect of the compounds on exponentially growing HepG2 cells was evaluated by means of the MTS method. Briefly, cells were seeded at a density of 3000/well (96 well plate) and were allowed to proliferate for 3 days in the absence or presence of compounds after which the optical density was measured with a 96-well plate reader and cell density was determined.

[20] = Cytostatic effect on parent hepatoma cell line HepG2 (MTS method); conditions: human
[21] = tested on: vesicular stomatitis virus; test: microbe, parasite or virus in culture; format: cell-based; conditions: HEL, read-out: in vitro antiviral activity (EC50), none up to
[22] = tested on: Reovirus-1; test: Virus panel, CPE assay: Reovirus-1 in Vero cells; format: cell-based; conditions: Reovirus-1, Vero cells; read-out: in vitro antiviral activity (EC50), none up to

Nc1ncnc2c1ncn2CCOCP(=O)(O)S (stereo not drawn) [Compound 6, 9-[2-(thiophosphonomethoxy)ethyl]adenine] showed an EC50 [1] of over 200 µM, an EC50 [2] of 58 µM and an EC50 [3] of 12.2 µM. For the same compound, the EC50 [4] was over 200 µM, the EC50 [5] was over 200 µM and the EC50 [6] was 4.5 µM. For the same compound, the CC50 at 7 days [7] was over 42 µM, the EC50 [8] was over 200 µM and the EC50 [9] was 10.4 µM. For the same compound, the EC50 [10] was over 200 µM, the EC50 [11] was over 200 µM and the t1/2 cell extracts [12] was “stable^c”. The EC50 [13] was over 200 µM, the CC50 [14] was over 332 µM and the EC50 [15] was 38 µM. The EC50 [16] was 7 µM, the EC50 [17] was over 200 µM and the half-life at 0.1 mM ([18]; bovine, serum, 37° C., initial concentration 0.1 mM, read-out: t1/2 complete medium) was over 24 h. The product intact ([18]; complete medium, 37° C., degradation into the phosphonate) was “^a: product 80% intact (degradation into PMEA)”, the degradation ([18]; culture medium) was 20% and the EC50 [19] was 9.6 µM. For the same compound, the CC50 at 3 days [20] was over 166 µM, the EC50 [21] was over 200 µM and the EC50 [22] was over 200 µM.
